Data taken from PubChem BioAssay (NCI).
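Cultured in 96-well plates, cells were exposed to test compound for 48 hours across five concentrations. TGI denotes the concentration required for complete inhibition of growth.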

What was measured:
Experiment in all cases: DTP human tumour cell line panel, 48 h
[1] = test system: 786-0 renal
[2] = test system: A549 NSCLC
[3] = test system: HCC-2998 colon
[4] = test system: M19-MEL melanoma
[5] = test system: MALME-3M melanoma
[6] = test system: NCI-H522 lung
[7] = test system: SK-MEL-2 melanoma
[8] = test system: SR leukemia
[9] = test system: BT-549 breast
[10] = test system: DU-145 prostate
[11] = test system: MCF7 breast
[12] = test system: MDA-MB-231 breast
[13] = test system: MDA-MB-435
[14] = test system: MDA-N
[15] = test system: NCI/ADR-RES ovarian
[16] = test system: PC-3 prostate
[17] = test system: SK-MEL-28 melanoma
[18] = test system: T-47D breast
[19] = test system: CCRF-CEM leukemia
[20] = test system: HS 578T breast

SMILES: C[n+]1c2ccccc2c(NC(CS)C(=O)O)c2ccccc21 (stereo not drawn)
- TGI [1]: > 100 µM
- TGI [2]: 70.1 µM
- TGI [3]: > 100 µM
- TGI [4]: > 100 µM
- TGI [5]: > 100 µM
- TGI [6]: 42.3 µM
- TGI [7]: 89.7 µM
- TGI [8]: 39.4 µM

SMILES: COC(=O)c1cc2cc3c(c(O)c2c(=O)o1)O[C@@]1(Oc2c(O)c4c(c(O)c2[C@H]1OC1CC(OC)C(O)C(C)O1)C(=O)C=C(OC)C4=O)[C@H](O)C3 (stereo partly drawn)
- TGI [9]: 4.93 µM
- TGI [10]: 7.87 µM
- TGI [11]: 10.1 µM
- TGI [12]: 5.95 µM
- TGI [13]: 7.47 µM
- TGI [14]: > 100 µM
- TGI [6]: 5.19 µM
- TGI [15]: > 100 µM
- TGI [16]: 12.2 µM
- TGI [7]: 10.5 µM
- TGI [17]: 1.91 µM
- TGI [8]: 4.76 µM
- TGI [18]: 7.2 µM

SMILES: N=[N+]=CC(=O)CCC(NC(=O)C(CCC(=O)C=[N+]=N)NC(=O)CCC(N)C(=O)O)C(=O)O (stereo not drawn)
- TGI [2]: > 100 µM
- TGI [19]: > 100 µM
- TGI [3]: > 100 µM
- TGI [4]: > 100 µM
- TGI [5]: > 100 µM
- TGI [11]: > 100 µM
- TGI [6]: > 100 µM
- TGI [15]: > 100 µM
- TGI [7]: > 100 µM
- TGI [17]: > 100 µM

SMILES: C1CSC(=[N+]2CC[N+](=C3SCCS3)CC2)S1
- TGI [1]: > 100 µM
- TGI [2]: > 100 µM
- TGI [19]: > 100 µM
- TGI [3]: > 100 µM
- TGI [4]: > 100 µM
- TGI [5]: > 100 µM
- TGI [6]: > 100 µM
- TGI [7]: > 100 µM
- TGI [17]: > 100 µM
- TGI [8]: > 100 µM

SMILES: Cc1c(Cl)c(S(N)(=O)=O)cc2c1NC=NS2(=O)=O
- TGI [1]: > 100 µM
- TGI [2]: > 100 µM
- TGI [9]: > 100 µM
- TGI [19]: > 100 µM
- TGI [10]: > 100 µM
- TGI [3]: > 100 µM
- TGI [20]: > 100 µM
- TGI [5]: > 100 µM
- TGI [11]: > 100 µM
- TGI [12]: > 100 µM
- TGI [13]: > 100 µM
- TGI [14]: > 100 µM
- TGI [6]: > 100 µM
- TGI [15]: > 100 µM
- TGI [16]: > 100 µM
- TGI [17]: > 100 µM
- TGI [18]: > 100 µM

SMILES: C/C(=N\NC(=S)N1CCN(C)CC1)c1nc2ncccc2[nH]1
- TGI [1]: > 100 µM
- TGI [2]: > 100 µM
- TGI [9]: > 100 µM
- TGI [19]: > 100 µM
- TGI [3]: > 100 µM
- TGI [20]: > 100 µM
- TGI [5]: > 100 µM
- TGI [11]: 80.5 µM
- TGI [12]: > 100 µM
- TGI [13]: > 100 µM
- TGI [6]: > 100 µM
- TGI [15]: > 100 µM
- TGI [16]: > 100 µM
- TGI [17]: > 100 µM
- TGI [18]: > 100 µM

SMILES: Oc1ccc(Cc2nccc3cc(O)c(O)cc23)cc1O
- TGI [1]: > 100 µM
- TGI [2]: > 100 µM
- TGI [9]: > 100 µM
- TGI [19]: 60.3 µM
- TGI [10]: > 100 µM
- TGI [20]: > 100 µM
- TGI [5]: > 100 µM
- TGI [11]: 49.6 µM
- TGI [12]: > 100 µM
- TGI [13]: > 100 µM
- TGI [14]: > 100 µM
- TGI [6]: > 100 µM
- TGI [15]: > 100 µM
- TGI [16]: > 100 µM
- TGI [7]: > 100 µM
- TGI [17]: > 100 µM
- TGI [8]: 96.8 µM
- TGI [18]: > 100 µM

SMILES: Cc1ccc(N=Nc2ccc(N)cc2C)c(S(N)(=O)=O)c1
- TGI [1]: > 100 µM
- TGI [2]: > 100 µM
- TGI [9]: > 100 µM
- TGI [19]: > 100 µM
- TGI [10]: > 100 µM
- TGI [20]: > 100 µM
- TGI [5]: > 100 µM
- TGI [11]: > 100 µM
- TGI [12]: > 100 µM
- TGI [14]: > 100 µM
- TGI [6]: > 100 µM
- TGI [15]: > 100 µM
- TGI [16]: > 100 µM
- TGI [7]: > 100 µM
- TGI [17]: > 100 µM
- TGI [8]: > 100 µM
- TGI [18]: > 100 µM

SMILES: OC(c1cc(-c2ccc(Cl)cc2)nc2ccccc12)C1CCCCN1 (stereo not drawn)
- TGI [1]: 3.92 µM
- TGI [2]: 3.53 µM
- TGI [9]: 16 µM
- TGI [19]: 2.52 µM
- TGI [10]: 3.45 µM
- TGI [3]: 3.94 µM
- TGI [20]: 4.34 µM
- TGI [5]: 2.94 µM
- TGI [11]: 3.03 µM
- TGI [12]: 3.58 µM
- TGI [13]: 4.35 µM
- TGI [14]: 3.7 µM
- TGI [6]: 2.77 µM
- TGI [15]: 5.79 µM
- TGI [16]: 3.79 µM
- TGI [17]: 3.53 µM
- TGI [18]: 2.96 µM

SMILES: O=C(O)NCC1CCCCC1 (tested in a mixture with another compound)
- TGI [1]: 77.3 µM
- TGI [2]: > 100 µM
- TGI [9]: 72.6 µM
- TGI [19]: > 100 µM
- TGI [10]: 50.7 µM
- TGI [5]: 7.15 µM
- TGI [12]: 44.9 µM
- TGI [13]: 58.1 µM
- TGI [14]: 47.7 µM
- TGI [6]: 28 µM
- TGI [15]: 83.8 µM
- TGI [16]: 46.4 µM
- TGI [7]: 30.9 µM
- TGI [17]: > 100 µM
- TGI [8]: 72 µM

SMILES: C/C=C(\C)C(=O)OC1C(C)=C2C(C1OC(=O)CCCC)C(C)(OC(C)=O)CC(OC(=O)CCCC)C1(O)C2OC(=O)C1(C)O (stereo not drawn)
- TGI [1]: > 60.1 µM
- TGI [2]: > 100 µM
- TGI [9]: > 100 µM
- TGI [19]: > 100 µM
- TGI [10]: > 100 µM
- TGI [3]: > 100 µM
- TGI [20]: > 100 µM
- TGI [11]: > 100 µM
- TGI [12]: 5.87 µM
- TGI [13]: > 100 µM
- TGI [14]: > 100 µM
- TGI [6]: 7.02 µM
- TGI [15]: > 100 µM
- TGI [16]: > 37.5 µM
- TGI [7]: 3.96 µM
- TGI [17]: > 100 µM
- TGI [8]: > 81 µM
- TGI [18]: > 100 µM

SMILES: Nc1c(C(=O)Nc2ccc(C3=NCCN3)cc2)cccc1C(=O)Nc1ccc(C2=NCCN2)cc1
- TGI [2]: > 100 µM
- TGI [19]: > 100 µM
- TGI [3]: > 100 µM
- TGI [4]: > 100 µM
- TGI [5]: > 100 µM
- TGI [11]: > 100 µM
- TGI [6]: > 100 µM
- TGI [15]: > 100 µM
- TGI [7]: > 100 µM
- TGI [17]: > 100 µM

SMILES: Cc1cc2sc(C)[n+](CCCOS(=O)(=O)[O-])c2cc1C
- TGI [1]: > 100 µM
- TGI [2]: > 100 µM
- TGI [9]: > 100 µM
- TGI [10]: > 100 µM
- TGI [20]: > 100 µM
- TGI [5]: > 100 µM
- TGI [11]: > 100 µM
- TGI [12]: > 100 µM
- TGI [13]: > 100 µM
- TGI [14]: > 100 µM
- TGI [6]: > 100 µM
- TGI [15]: > 100 µM
- TGI [16]: > 100 µM
- TGI [7]: > 100 µM
- TGI [17]: > 100 µM
- TGI [8]: > 100 µM
- TGI [18]: > 100 µM

SMILES: O=C(NC1C=Nc2ccc([N+](=O)[O-])cc2NC1=O)c1cc(Cl)cc([N+](=O)[O-])c1 (stereo not drawn)
- TGI [2]: > 100 µM
- TGI [19]: > 100 µM
- TGI [3]: > 100 µM
- TGI [4]: > 100 µM
- TGI [6]: 67.8 µM
- TGI [7]: > 100 µM
- TGI [17]: > 100 µM
- TGI [8]: > 100 µM
